Laboratory results from patent US7115753B2, “Triaryl cation antibiotics from environmental DNA” (Wisconsin Alumni Research Foundation, priority 2000, dated 2006).
Read-outs that look alike come from different tables or passages of the source. Marks after values point to notes of the source that are not given here.

Experiments:
Erwinia herbicola IRQ = assay: Zone of inhibition assay; type: cell-based; conditions: 10 μl drop of 250 μg/ml in DMSO
Escherichia coli HS997 = assay: Zone of inhibition assay; type: cell-based; conditions: 10 μl drop of 250 μg/ml in DMSO
[1] = system: Pseudomonas aeruginosa 9020; assay: Zone of inhibition assay; type: cell-based; design: key: (+) 2 to 13 mm zone; (+/−) 1 mm zone; (−) no zone of inhibition; conditions: 10 μl drop of 250 μg/ml in DMSO
[2] = system: Salmonella typhimurium LT2; assay: Zone of inhibition assay; type: cell-based; conditions: 10 μl drop of 250 μg/ml in DMSO
[3] = system: B. cereus var. mycoides 1003; type: cell-based, Bacillus cereus var. mycoides; conditions: 10 μl drop of 250 μg/ml in DMSO
[4] = system: Enterococcus faecalis 4025; assay: Zone of inhibition assay; type: cell-based; design: key: (+) 2 to 13 mm zone; (+/−) 1 mm zone; (−) no zone of inhibition; conditions: 10 μl drop of 250 μg/ml in DMSO
[5] = system: Staphylococcus aureus 3001; assay: Zone of inhibition assay; type: cell-based; conditions: 10 μl drop of 250 μg/ml in DMSO
[6] = system: Streptococcus pyogenes 8P01; assay: Zone of inhibition assay; type: cell-based; conditions: 10 μl drop of 250 μg/ml in DMSO
[7] = system: Streptomyces griseus 6501; assay: Zone of inhibition assay; type: cell-based; conditions: 10 μl drop of 250 μg/ml in DMSO
[8] = system: Candida guilliermondii Y001; assay: Zone of inhibition assay; type: cell-based; conditions: 10 μl drop of 250 μg/ml in DMSO
[9] = system: Fusarium solani (f. sp. glycine) 90.1; assay: Zone of inhibition assay (fungal plug on plate); type: cell-based; design: key: (+) 2 to 13 mm zone; (+/−) 1 mm zone; (−) no zone of inhibition; conditions: DMSO-dissolved compound on plate, 23° C., 7 days
Experimental: (§1) Pythium ultimum (1033) and Fusarium solani f sp. glycine (90.1) were grown on ¼- strength potato dextrose agar (29) at 23° C. Plugs were cut from the fungal lawn using a #5 cork borer and placed onto the center of a fresh plate containing the DMSO-dissolved compounds. The plates were incubated 7 days, or until the organism covered the plate, at 23° C., in the dark.

Pythium ultimum 1033 = assay: Zone of inhibition assay (fungal plug on plate); type: cell-based; design: key: (+) 2 to 13 mm zone; (+/−) 1 mm zone; (−) no zone of inhibition; conditions: DMSO-dissolved compound on plate, 23° C., 7 days
Experimental: as §1

Bacillus subtilis = assay: Minimum inhibitory concentration (MIC) in broth culture; type: cell-based; conditions: synthetic compound
Experimental: (§2) Overnight cultures were prepared as for the plate inhibition assays. Culture optical densities (O.D.) were normalized to 0.15 (150 μl path length) by performing 1:1 serial dilutions (150 μl transfer into 150 μl diluent) in a 96 well microtiter plate. Inoculum cell concentrations (colony forming units/ml) were subsequently determined by performing 1:5 serial dilution series (50 μl transfer into 200 μl diluent) in a second microtiter plate. Three dilutions were plated ([…]) by mixing 50 μl of a given dilution into 20 ml of cooled BHI/YE medium and quickly pouring into a petri plate. Test compounds, both natural and synthetic, were dissolved in DMSO (2.0 mg/ml) and diluted into BHI/YE medium to a concentration of 106 μg/ml (5.35% v/v DMSO). Samples of each of the test compounds (150 μl each) were added to 3 separate wells, each containing 150 μl of BHI/YE medium (no DMSO). […] Three plates were prepared for each test organism (n=3 […]=9 per compound, per organism). Additional wells were included in duplicate on each plate for color subtraction, +/-DMSO, and minus compound controls (n=2 […]=6 per control, per organism). Ten μl of normalized inoculum was added per well. Absorbance at 590 nm was read using a […] Victor® Microtiter plate reader; double circular mixing was performed for 10 seconds prior to reading at times 0, 30 and 60 hours. The plates were statically incubated at 28° C. when not being read. Absorbance values were imported into Microsoft Excel® and analyzed graphically.

Erwinia herbicola = assay: as above; type: cell-based; conditions: synthetic compound
Experimental: as §2

Salmonella typhimurium = assay: as above; type: cell-based; conditions: synthetic compound
Experimental: as §2

Staphylococcus aureus = assay: as above; type: cell-based
Experimental: as §2

Streptococcus pyogenes = assay: as above; type: cell-based; conditions: synthetic compound
Experimental: as §2

## c1ccc([C+](c2c[nH]c3ccccc23)c2c[nH]c3ccccc23)cc1 [Turbomycin B, turbomycin B]
Erwinia herbicola IRQ; Natural compound
  Antibiotic activity (zone of inhibition): + ((+) 2 to 13 mm zone)
Erwinia herbicola IRQ; Synthetic compound
  Antibiotic activity (zone of inhibition): + ((+) 2 to 13 mm zone)
Escherichia coli HS997; Natural compound
  Antibiotic activity (zone of inhibition): +/− ((+/−) 1 mm zone)
Escherichia coli HS997; Synthetic compound
  Antibiotic activity (zone of inhibition): +/− ((+/−) 1 mm zone)
[1]; Natural compound
  Antibiotic activity (zone of inhibition): −
[1]; Synthetic compound
  Antibiotic activity (zone of inhibition): −
[2]; Natural compound
  Antibiotic activity (zone of inhibition): + ((+) 2 to 13 mm zone)
[2]; Synthetic compound
  Antibiotic activity (zone of inhibition): + ((+) 2 to 13 mm zone)
[3]; Natural compound
  Antibiotic activity (zone of inhibition): + ((+) 2 to 13 mm zone)
[3]; Synthetic compound
  Antibiotic activity (zone of inhibition): + ((+) 2 to 13 mm zone)
[4]; Natural compound
  Antibiotic activity (zone of inhibition): −
[4]; Synthetic compound
  Antibiotic activity (zone of inhibition): −
[5]; Natural compound
  Antibiotic activity (zone of inhibition): + ((+) 2 to 13 mm zone)
[5]; Synthetic compound
  Antibiotic activity (zone of inhibition): + ((+) 2 to 13 mm zone)
[6]; Natural compound
  Antibiotic activity (zone of inhibition): + ((+) 2 to 13 mm zone)
[6]; Synthetic compound
  Antibiotic activity (zone of inhibition): + ((+) 2 to 13 mm zone)
[7]; Natural compound
  Antibiotic activity (zone of inhibition): + ((+) 2 to 13 mm zone)
[7]; Synthetic compound
  Antibiotic activity (zone of inhibition): + ((+) 2 to 13 mm zone)
[8]; Natural compound
  Antibiotic activity (zone of inhibition): +/− ((+/−) 1 mm zone)
[8]; Synthetic compound
  Antibiotic activity (zone of inhibition): +/− ((+/−) 1 mm zone)
[9]; Natural compound
  Antibiotic activity (zone of inhibition): −
[9]; Synthetic compound
  Antibiotic activity (zone of inhibition): −
Pythium ultimum 1033; Natural compound
  Antibiotic activity (zone of inhibition): −
Pythium ultimum 1033; Synthetic compound
  Antibiotic activity (zone of inhibition): −

## c1ccc2c([C+](c3c[nH]c4ccccc34)c3c[nH]c4ccccc34)c[nH]c2c1 [Turbomycin A, turbomycin A]
Erwinia herbicola IRQ; Natural compound
  Antibiotic activity (zone of inhibition): + ((+) 2 to 13 mm zone)
Erwinia herbicola IRQ; Synthetic compound
  Antibiotic activity (zone of inhibition): +^a ((+) 2 to 13 mm zone)
Escherichia coli HS997; Natural compound
  Antibiotic activity (zone of inhibition): +/− ((+/−) 1 mm zone)
Escherichia coli HS997; Synthetic compound
  Antibiotic activity (zone of inhibition): +/−^b ((+/−) 1 mm zone)
[1]; Natural compound
  Antibiotic activity (zone of inhibition): −
[1]; Synthetic compound
  Antibiotic activity (zone of inhibition): −^c
[2]; Natural compound
  Antibiotic activity (zone of inhibition): + ((+) 2 to 13 mm zone)
[2]; Synthetic compound
  Antibiotic activity (zone of inhibition): + ((+) 2 to 13 mm zone)
[3]; Natural compound
  Antibiotic activity (zone of inhibition): + ((+) 2 to 13 mm zone)
[3]; Synthetic compound
  Antibiotic activity (zone of inhibition): + ((+) 2 to 13 mm zone)
[4]; Natural compound
  Antibiotic activity (zone of inhibition): −
[4]; Synthetic compound
  Antibiotic activity (zone of inhibition): −
[5]; Natural compound
  Antibiotic activity (zone of inhibition): + ((+) 2 to 13 mm zone)
[5]; Synthetic compound
  Antibiotic activity (zone of inhibition): + ((+) 2 to 13 mm zone)
[6]; Natural compound
  Antibiotic activity (zone of inhibition): + ((+) 2 to 13 mm zone)
[6]; Synthetic compound
  Antibiotic activity (zone of inhibition): + ((+) 2 to 13 mm zone)
[7]; Natural compound
  Antibiotic activity (zone of inhibition): + ((+) 2 to 13 mm zone)
[7]; Synthetic compound
  Antibiotic activity (zone of inhibition): + ((+) 2 to 13 mm zone)
[8]; Natural compound
  Antibiotic activity (zone of inhibition): +/− ((+/−) 1 mm zone)
[8]; Synthetic compound
  Antibiotic activity (zone of inhibition): +/− ((+/−) 1 mm zone)
[9]; Natural compound
  Antibiotic activity (zone of inhibition): −
[9]; Synthetic compound
  Antibiotic activity (zone of inhibition): −
Pythium ultimum 1033; Natural compound
  Antibiotic activity (zone of inhibition): −
Pythium ultimum 1033; Synthetic compound
  Antibiotic activity (zone of inhibition): −
Bacillus subtilis
  minimum inhibitory concentration (MIC): 6.2 µg/mL
Erwinia herbicola
  minimum inhibitory concentration (MIC): 6.2 µg/mL
Salmonella typhimurium
  minimum inhibitory concentration (MIC): 12.5 µg/mL
Staphylococcus aureus; natural product, same experiment as synthetic compound, S. aureus
  MIC of natural product compared with synthetic compound: same MIC
Staphylococcus aureus; synthetic compound, broth culture, Staphylococcus aureus
  minimum inhibitory concentration (MIC): 6.2 µg/mL
Streptococcus pyogenes
  minimum inhibitory concentration (MIC): 6.2 µg/mL
